Two compounds from patent US20180344725A1, “QUINOLONE CHALCONE COMPOUNDS AND USES THEREOF” (priority 2015, published 2018) can be followed below.

Format in all cases: cell-based
In one assay the test system is ANBL6-BR. Description: Antiproliferation, bortezomib-resistant cells. To be noted: ANBL6-BR (bortezomib-resistant multiple myeloma). As for the experimental part:
All of the cell lines used were purchased from ATCC and cultured in RPMI-1640 supplemented with 10% fetal bovine serum and antibiotics (100 units penicillin/100 μg/ml streptomycin), unless stated otherwise. 1845B5 and MCF-10A non-cancer breast cell lines were cultured in DME/F12 medium supplemented with 10% fetal bovine serum, antibiotics and growth factors. […] The human small cell lung carcinoma H69 cell line and its multidrug-resistant MRP1-overexpressing isogenic H69AR cell line were purchased from ATCC. […] H69 cells grow as large multi-cell aggregates, making it difficult to accurately count cell numbers. […] The IL-6 dependent bortezomib-resistant ANBL6-BR cell line was further supplemented with 1 ng/ml of IL-6. The MCF10AT1 and MCF10CA1a cell lines are isogenic to the MCF10A cell line, and obtained from Dr. Valerie Weaver at the Center for Bioengineering and Tissue Regeneration, UCSF, CA, USA. […] Cell growth (inhibition) was calculated by the following formula: % cells proliferation=[(AT-CT)/(ST-CT)]×100 wherein AT=absorbance of treated cells, CT=absorbance of negative control cells, and ST=absorbance of sham treated cells. […] The combinational index (CI) was calculated as described previously (Chou 2006). […] CI values were determined from four independent experiments.

The test system of a further assay is NCI-60 cancer cell lines. Description: NCI-60 cancer panel SRB screening. To be noted: 10 μM, 48 hours. As to the method:
Ten μM of CTR-20 was used to examine the drug's efficacy against the NCI-60 cancer cell lines including: six leukemia cell lines, nine non-small cell lung cancer cell lines, seven colorectal cancer cell lines, six CNS cancer cell lines, nine melanoma cell lines, seven ovarian cancer cell lines, seven renal cancer cell lines, two prostate cancer cell lines and six breast cancer cell lines. Screening method was carried out by a sulforhodamine B (SRB) colorimetric assay.

The subject of another assay is RPMI-8226-BR. Description: Antiproliferation, bortezomib-resistant cells. To be noted: RPMI-8226-BR (bortezomib-resistant). As to the method:
For (anti)proliferation assays, 4,000-5,000 cells/well of the 96-well clustered dish were incubated for 16 hours, as described previously (Hu et al., 2008; Skehan et al., 1990). After 16 hours, culture medium was replaced with fresh medium containing different dilutions of test compounds dissolved in DMSO. Some wells were treated with 100 μl of 10% trichloroacetic acid (TCA) as a negative control and sham (medium with dimethyl sulfoxide; DMSO) treated cells were used as a positive control. After 72 hours post-incubation, medium was removed and cells were fixed with 10% TCA at 4° C. for 1 hour. […] SRB stained macromolecules were determined at a 540 nm wavelength using an automated plate reader (Synergy H4 Hybrid Multi-Mode Microplate Reader, BioTek, Winooski, Vt.). Cell growth (inhibition) was calculated by the following formula: […]
wherein AT=absorbance of treated cells, CT=absorbance of negative control cells, and ST=absorbance of sham treated cells. IC50 values were calculated from sigmoidal dose-response curves generated by two independent biological replicates, with quadruplicate in each set by using Graph Pad Prism v.5.04 software. […] The combinational index (CI) was calculated as described previously (Chou 2006). […] CI values were determined from four independent experiments.

The next assay concerns HeLa cells. Description: EdU incorporation (DNA replication). The conditions noted are these: 3.0 μM for 24 hours; sham control 25.4%. As to the method:
CTR-17 caused neither impediment of DNA replication nor DNA damage. […] The detection of EdU incorporated into DNA was carried out by fluorescence microscopy. […] Etoposide (50.0 μM) was used as a positive control.

Molecules are shown by their SMILES.

On to `COc1ccc2[nH]c(=O)c(/C=C/C(=O)c3ccccc3OC)cc2c1` [CTR-20, (E)-6-Methoxy-3-(3-(2-methoxyphenyl)-3-oxoprop-1-enyl) quinolin-2(1H)-one], for which the IC50 (commonly the concentration at which inhibition is half-maximal) was determined as 760 ± 280 nM in the assay with ANBL6-BR and 280 ± 30 nM with RPMI-8226-BR. The “cell survival (range over cell lines)” value is on record as −10.05 to +50.45% with NCI-60 cancer cell lines (nine melanomas); −11.97 to 38.93% in the assay on NCI-60 cancer cell lines (nine non-small cell lung cancer cell lines); “+4.37 to +23.11%” with NCI-60 cancer cell lines (seven colorectal cancer cell lines); “+1.18 to +50.80%” with NCI-60 cancer cell lines (seven ovarian cancer cell lines); −7.90 to +42.01% in the assay on NCI-60 cancer cell lines (seven renal cancer cell lines); −2.02 to +18.91% with NCI-60 cancer cell lines (six breast cancer cell lines). Besides, the “cell survival (range over cell lines)” value in the assay on NCI-60 cancer cell lines (six leukemia cell lines) is −2.46 to +10.88%; in the assay with NCI-60 cancer cell lines (two prostate cancer cell lines), “+10.76 to +22.06%”.
Compound `COc1ccccc1C(=O)/C=C/c1cc2ccccc2[nH]c1=O` [CTR-17, (E)-3-(3-(2-Methoxyphenyl)-3-oxoprop-1-enyl)quinolin-2(1H)-one] showed an EdU positive cells in the assay with HeLa cells of 22.0%.
